Tests used:
[1] = target: T1, rat 5-LPO (Rattus norvegicus, UniProt P12527); assay: 5-LPO inhibitory activity (5-HETE produced in cell-free extract of rat basophilic leukemia RBL-1 cells, HPLC); type: biochemical; details: arachidonic acid substrate, 37° C., 5 minutes
T1 construct: produced in a cell-free extract of rat basophilic leukemia cells; endogenous in cells; host or cells: RBL-1 rat basophilic leukemia cells (ATCC CRL 1378), cell-free extract
T1 sequence (P12527 1-673): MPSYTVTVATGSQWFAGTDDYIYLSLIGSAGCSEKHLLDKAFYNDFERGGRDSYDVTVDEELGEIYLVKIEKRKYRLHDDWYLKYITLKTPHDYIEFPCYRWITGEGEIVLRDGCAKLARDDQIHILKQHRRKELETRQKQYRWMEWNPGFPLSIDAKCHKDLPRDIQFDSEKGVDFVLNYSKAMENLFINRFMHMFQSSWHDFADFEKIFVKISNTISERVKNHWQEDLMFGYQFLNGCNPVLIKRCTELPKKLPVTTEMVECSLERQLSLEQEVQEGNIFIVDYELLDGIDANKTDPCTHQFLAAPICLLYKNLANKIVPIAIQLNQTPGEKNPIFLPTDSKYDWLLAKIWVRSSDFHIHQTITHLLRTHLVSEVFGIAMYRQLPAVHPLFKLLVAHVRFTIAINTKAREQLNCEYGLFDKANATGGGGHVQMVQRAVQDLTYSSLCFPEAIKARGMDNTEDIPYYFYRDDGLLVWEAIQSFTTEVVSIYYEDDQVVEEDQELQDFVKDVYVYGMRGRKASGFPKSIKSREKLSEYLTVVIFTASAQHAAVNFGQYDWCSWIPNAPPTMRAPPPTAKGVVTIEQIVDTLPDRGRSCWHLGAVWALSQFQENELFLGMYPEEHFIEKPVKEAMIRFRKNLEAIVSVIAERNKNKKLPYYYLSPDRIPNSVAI
Procedure: The assay method employed in this manuscript is a slight modification of that published by Hook, Yacobuci, O'Connor, Lee, Kerns, Krishnan, Matson and Hesler in "Identification of the inhibitory activity of carbazomycins B and C against 5-lipoxygenase: a new activity for these compounds", J. Antibiot. (1990) 43, 1347. Rat basophilic leukemia cells […]. They were harvested by centrifugation and washed twice with […] containing I mM EDTA. The cells were resuspended in the same buffer and sonicated. The suspension was centrifuged at 13,000×g to remove cell debris and the supernatant stored at -80° C.
Enzyme assays were conducted by diluting the cell-free extract to the desired specific enzyme activity with phosphate buffer saline (PBS) containing 28.5 mM phosphate, 1 mM ethylenediamine tetraacetic acid (EDTA), 0.9 mM adenosine triphosphate (ATP) and 0.9 mM glutathione. The cell-free extract solution (110 μ1) was preincubated at 37° C. for 2.5 minutes, followed by the addition of the test sample in 20 μl of DMSO-PBS (1:9, v/v). The reaction was started by the addition of 5 μl of substrate (2 mM arachidonic acid plus 25 mM CaC12 in ethanol-water, 3:1). After incubation for 5 minutes, the reaction was terminated by the addition of 135 μl of ethanol and the solution centrifuged to remove precipitated protein. The 5-hydroxyeicosatetraenoic acid (5-HETE) in the supernatant was analyzed by HPLC as described below.
The inhibitory effect of a fermentation broth extract or a purified preparation was determined by measuring the amount of 5-hydroxyeicosatetraenoic acid (5-HETE) produced in a cell-free extract of rat basophilic leukemia cells (RBL-I cells, ATCC CRL 1378) in the presence of a test sample, arachidonic acid, adenosine triphosphate, CaC12 and glutathione. […] The concentration of 5-HETE was spectrophotometrically measured at 230 nm with a Gilson 115 UV detector and a Hewlett Packard 3396 A integrator.

[2] = Solubility (physico-chemical properties); type: physicochemical

| SMILES | IC50 [1] | solubility in methanol, ethanol, ethyl acetate, chloroform and dimethyl sulfoxide [2] | solubility in n-hexane [2] | solubility in water [2] |
| --- | --- | --- | --- | --- |
| CC(C)CCCCCCCCCOC(=O)c1cc(O)ccc1N [Compound IC, Isolauryl 5-hydroxyanthranilate] | 6.3 µM | soluble | slightly soluble | insoluble |
| CC(C)CCCCCCCOC(=O)c1cc(O)ccc1N [IA, Isodecyl 5-hydroxyanthranilate] | 3.4 µM | soluble | slightly soluble | insoluble |
| CC(C)CCCCCCCCOC(=O)c1cc(O)ccc1N [IB, Isoundecyl 5-hydroxyanthranilate] | 4.9 µM | soluble | slightly soluble | insoluble |
